According to US20230346827A1 (priority 2020, published 2023):

Tested on: rats subjected to sTBI
Assay: sTBI rats, LMW-DS 1, 5, 15 mg/kg s.c. 30 min post-TBI: HPLC of brain energy metabolites, antioxidants, oxidative/nitrosative stress biomarkers (Example 4)
Assay type: in vivo, rat
Conditions: 1 mg/kg
Protocol: Male Wistar rats (n=160) of 300-350 g body weight were used in this study. They were fed with standard laboratory diet and water ad libitum in a controlled environment.
As the accepted anesthetic mixture, animals received 35 mg/kg b.w. ketamine and 0.25 mg/kg body weight midazolam by intramuscular injection. Diffuse sTBI was induced according to the “weight drop” impact acceleration model set up by Marmarou et al. J. Neurosurg. 1994, 80: 291-300. This model causes diffuse axonal injury and it is able to reproduce the physical and mechanical characteristics of the diffuse TBI in humans.
Severe TBI was induced by dropping a 450 g weight from 2 meters height onto the rat head protected by a helmet (metal disk previously fixed on the skull using dental cement) in order to uniformly distribute the mechanical force to the brain. Rats were placed prone on a bed of specific polyurethane foam inserted in a special container; this foam dissipates the major part of the potential energy (deriving from the mechanical forces) and prevents any rebound of the animal after the impact that could produce spinal damages.
After 2 or 7 days from TBI induction, rats were anesthetized again and then immediately sacrificed. These time points are coincident with the worst biochemical derangement (2 days) or, in the case of a mildly injured brain, with a full metabolic recovery (7 days).
The drug treatment consisted in a subcutaneous injection of 0.5 ml of LMW-DS (ILB®, Tikomed, Viken, Sweden, WO 2016/076780) and administered at 3 different concentrations (1, 5 and 15 mg/kg body weight), according to the schematic protocol described below. Sham-operated animals underwent the same procedure of anesthesia but TBI and were used as the control group.
(§1) Rats subjected to sTBI and receiving a single administration of LMW-DS after 30 minutes post-TBI, with sacrifice at 2 days post-TBI. Animals were divided in the following subgroups: • 1. 12 animals subjected to sTBI and treated with 1 mg/kg b.w. LMW-DS • 2. 12 animals subjected to sTBI and treated with 5 mg/kg b.w. LMW-DS • 3. 12 animals subjected to sTBI and treated with 15 mg/kg b.w. LMW-DS
as §1, with “at 7” for “at 2”
Rats (n = 12) subjected to sTBI and receiving repeated administrations of the maximal dose of LMW-DS (15 mg/kg b.w.) after 30 minutes, 3 days and 5 days post-TBI, with sacrifice at 7 days post-TBI. Four additional rats were used for the histo-morphological studies. Total rats in this group: n=16
To minimize metabolite loss, an in vivo craniectomy was performed in all animals during anesthesia. The rat skull was carefully removed, the brain was exposed, sharply cut along the sagittal fissure and the two hemispheres were separated. The hemispheres dedicated to biochemical analyses were freeze-clamped by aluminum tongues pre-cooled in liquid nitrogen and then immersed in liquid nitrogen. The freeze-clamping procedure was introduced to accelerate freezing of the tissue, thus minimizing potential metabolite loss.
Tissue homogenization for metabolite analyses was effected as described below. After the wet weight (w.w.) determination, the frozen hemispheres were placed into 7 ml of ice-cold, nitrogen-saturated, precipitating solution (1:10 w/v) composed by CH3CN + 10 mM KH2PO4, pH 7.40, (3:1; v:v), and the homogenization was performed using an Ultra-Turrax homogenizer set at 24,000 rpm/min (Janke & Kunkel, Staufen, Germany). […]

## sodium salt of dextran sulfate [LMW-DS]
2 d post-sTBI
  ADENOSINE: 68.91 ± 16.50 nmol/g w.w.
  ADP: 333.90 ± 28.72 nmol/g w.w.
  ADP-Ribose: 25.69 ± 5.16 nmol/g w.w.
  AMP: 62.04 ± 7.46 nmol/g w.w.
  ASCORBIC ACID: 2567.35 ± 147.76 nmol/g w.w.
  ATP: 1696.96 ± 99.43 nmol/g w.w.
  Acetyl-CoA: 27.74 ± 3.23 nmol/g w.w.
  CDP choline: 8.23 ± 1.22 nmol/g w.w.
  CMP: 29.39 ± 6.00 nmol/g w.w.
  CREATININE: 17.66 ± 3.29 nmol/g w.w.
  CTP: 33.01 ± 7.63 nmol/g w.w.
  CYTIDINE: 13.79 ± 2.49 nmol/g w.w.
  CYTOSINE: 13.47 ± 1.65 nmol/g w.w.
  CoA-SH: 9.42 ± 1.04 nmol/g w.w.
  GDP: 189.85 ± 26.23 nmol/g w.w.
  GDP Glucose: 65.66 ± 41.61 nmol/g w.w.
  GMP: 205.06 ± 25.74 nmol/g w.w.
  GSH: 2337.06 ± 340.81 nmol/g w.w.
  GTP: 169.98 ± 17.93 nmol/g w.w.
  GUANINE: 1.62 ± 0.41 nmol/g w.w.
  GUANOSINE: 16.46 ± 2.73 nmol/g w.w.
  HYPOXANTHINE: 4.02 ± 0.66 nmol/g w.w.
  IMP: 45.97 ± 8.65 nmol/g w.w.
  INOSINE: 113.85 ± 14.84 nmol/g w.w.
  MDA: 44.00 ± 7.17 nmol/g w.w.
  Malonyl-CoA: 19.06 ± 4.04 nmol/g w.w.
  NADH: 9.42 ± 1.38 nmol/g w.w.
  NADPH: 13.07 ± 1.09 nmol/g w.w.
  NADP^+: 11.79 ± 2.70 nmol/g w.w.
  NAD^+: 325.87 ± 55.47 nmol/g w.w.
  NO2: 158.36 ± 19.08 nmol/g w.w.
  NO3: 99.16 ± 21.58 nmol/g w.w.
  UDP: 83.06 ± 8.52 nmol/g w.w.
  UDP-Gal: 118.50 ± 9.89 nmol/g w.w.
  UDP-GalNac: 21.24 ± 3.13 nmol/g w.w.
  UDP-Glc: 45.14 ± 6.68 nmol/g w.w.
  UDP-GlcNac: 96.62 ± 8.80 nmol/g w.w.
  UMP: 148.04 ± 20.45 nmol/g w.w.
  URACIL: 17.18 ± 3.36 nmol/g w.w.
  URIC ACID: 52.42 ± 10.75 nmol/g w.w.
  URIDINE: 79.93 ± 14.07 nmol/g w.w.
  UTP: 104.07 ± 16.34 nmol/g w.w.
  XANTHINE: 13.79 ± 1.43 nmol/g w.w.
  β-PSEUDOURIDINE: 11.64 ± 2.3 nmol/g w.w.
2 d post-sTBI, adimensional ratio
  NAD^+/NADH: 33.91 ± 9.32
7 d post-sTBI
  ADENOSINE: 26.08 ± 19.31 nmol/g w.w.
  ADP: 286.78 ± 38.19 nmol/g w.w.
  ADP-Ribose: 7.95 ± 1.99 nmol/g w.w.
  AMP: 43.13 ± 3.39 nmol/g w.w.
  ASCORBIC ACID: 2177.22 ± 262.21 nmol/g w.w.
  ATP: 1792.01 ± 144.16 nmol/g w.w.
  Acetyl-CoA: 27.05 ± 4.61 nmol/g w.w.
  CDP choline: 6.26 ± 2.01 nmol/g w.w.
  CMP: 25.41 ± 10.81 nmol/g w.w.
  CREATININE: 6.57 ± 1.16 nmol/g w.w.
  CTP: 81.75 ± 31.55 nmol/g w.w.
  CYTIDINE: 29.67 ± 10.44 nmol/g w.w.
  CYTOSINE: 16.03 ± 3.44 nmol/g w.w.
  CoA-SH: 38.50 ± 4.94 nmol/g w.w.
  GDP: 121.72 ± 13.91 nmol/g w.w.
  GDP Glucose: 112.22 ± 13.13 nmol/g w.w.
  GMP: 113.06 ± 53.51 nmol/g w.w.
  GSH: 1627.30 ± 214.51 nmol/g w.w.
  GTP: 438.65 ± 39.88 nmol/g w.w.
  GUANINE: 6.86 ± 2.92 nmol/g w.w.
  GUANOSINE: 19.11 ± 3.98 nmol/g w.w.
  HYPOXANTHINE: 16.97 ± 4.94 nmol/g w.w.
  IMP: 80.16 ± 20.53 nmol/g w.w.
  INOSINE: 124.27 ± 13.94 nmol/g w.w.
  MDA: 32.98 ± 5.44 nmol/g w.w.
  Malonyl-CoA: 5.43 ± 0.98 nmol/g w.w.
  NADH: 8.20 ± 1.41 nmol/g w.w.
  NADPH: 18.91 ± 4.39 nmol/g w.w.
  NADP^+: 39.94 ± 14.65 nmol/g w.w.
  NAD^+: 268.14 ± 37.97 nmol/g w.w.
  NO2: 93.04 ± 20.16 nmol/g w.w.
  NO3: 153.62 ± 26.24 nmol/g w.w.
  UDP: 38.59 ± 5.43 nmol/g w.w.
  UDP-Gal: 130.20 ± 8.95 nmol/g w.w.
  UDP-GalNac: 15.85 ± 4.54 nmol/g w.w.
